Measurements reported in publication PMC10598672, “A hybrid energy-based and AI-based screening approach for the discovery of novel inhibitors of JAK3” (Frontiers in Medicine, 2023).

Columns and labels:
[1] = target: T1, JAK3 (Homo sapiens, UniProt P52333); test: HTRF kinase assay, inhibition rate at […]; assay type: biochemical; settings: read-out: Inhibit rate (%)
T1 sequence (P52333 1-1124): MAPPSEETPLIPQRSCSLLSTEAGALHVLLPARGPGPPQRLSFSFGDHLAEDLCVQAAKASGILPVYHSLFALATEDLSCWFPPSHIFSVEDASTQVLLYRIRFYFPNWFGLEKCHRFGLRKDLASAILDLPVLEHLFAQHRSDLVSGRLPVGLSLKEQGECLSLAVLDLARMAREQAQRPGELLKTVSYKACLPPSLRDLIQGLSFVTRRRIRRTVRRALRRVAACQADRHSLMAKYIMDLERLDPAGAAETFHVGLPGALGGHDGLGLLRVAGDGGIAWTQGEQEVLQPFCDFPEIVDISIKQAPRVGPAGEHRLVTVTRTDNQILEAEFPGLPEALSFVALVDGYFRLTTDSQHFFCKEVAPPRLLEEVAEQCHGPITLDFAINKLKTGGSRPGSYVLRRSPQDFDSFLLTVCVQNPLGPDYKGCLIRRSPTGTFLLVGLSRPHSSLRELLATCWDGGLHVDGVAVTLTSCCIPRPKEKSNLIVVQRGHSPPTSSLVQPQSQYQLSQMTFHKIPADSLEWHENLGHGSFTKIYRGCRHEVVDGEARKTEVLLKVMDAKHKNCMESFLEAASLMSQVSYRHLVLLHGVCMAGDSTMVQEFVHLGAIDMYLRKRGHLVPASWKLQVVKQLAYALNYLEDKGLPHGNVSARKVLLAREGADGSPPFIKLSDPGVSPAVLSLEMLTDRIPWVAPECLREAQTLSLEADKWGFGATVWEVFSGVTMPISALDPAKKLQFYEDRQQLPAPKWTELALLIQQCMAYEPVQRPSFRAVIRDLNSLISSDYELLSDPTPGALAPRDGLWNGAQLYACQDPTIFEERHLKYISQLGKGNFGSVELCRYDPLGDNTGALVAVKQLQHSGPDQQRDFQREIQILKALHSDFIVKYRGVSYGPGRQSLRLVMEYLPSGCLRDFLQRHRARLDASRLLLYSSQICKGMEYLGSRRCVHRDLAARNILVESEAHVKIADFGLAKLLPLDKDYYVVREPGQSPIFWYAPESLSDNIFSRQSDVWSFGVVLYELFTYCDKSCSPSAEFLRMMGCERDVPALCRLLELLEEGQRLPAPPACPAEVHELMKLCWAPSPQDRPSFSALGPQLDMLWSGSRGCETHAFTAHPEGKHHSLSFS

[2] = target: T1, JAK3; test: HTRF kinase assay (Cryptate/XL665), dose-response IC50; assay type: biochemical

Structure (SMILES)	inhibition at 25 µM [1] [%]	IC50 [2] [µM]
CN1CCN(c2ccc(Nc3ncc4cc(C#N)c(=O)n(C5CCCC5)c4n3)cc2)CC1 [compound 5]	75.2 ± 0.85	
CN1CCC(Nc2nc(Nc3ccc(Oc4ccccc4)cc3)c3c(=O)[nH]cc(Br)c3n2)CC1 [compound 4]	93.37 ± 0.01	
CC(=O)Nc1cc(Oc2ccc3c(C(=O)Nc4ccc(CN5CCN(C)CC5)c(C(F)(F)F)c4)cccc3c2)ncn1 [compound 8]		4.11
